From patent publication US20080058709A1, “METHOD AND APPARATUS THAT ASSOCIATE THE PARENTERAL INJECTION OF MEDICAL GRADE CARBON DIOXIDE (CO2) CONCOMITANTLY WITH THE APPLICATION OF INFRARED RADIATION FROM THERMAL AND/OR LIGHT SOURCES USING CONTROL BY MEANS OF CUTANEOUS AND/OR BODY THERMOMETRY” (priority 2006, published 2008)
“Also recorded” adds a separate entry of the source.

Legend:
acupuncture points = experiment: application of the invention in acupuncture (carboxyacupuncture); type: in vivo, human; conditions: CO2 infusion combined with infrared radiation controlled by thermometry
Text: Technical variants in the mode of application of the product have also been developed by the proponent, such as: the use of limiting devices or tourniquets (G) at several points of the lower limbs in order to limit the expansion of the gas; distribution and homogenization of the CO2 in areas of interest by means of manual massages with oils, creams, or ointments; as well as the development of specific injection techniques into alternative parenteral routes (intramuscular, subfascial, intrasynovial, and other), as well as new methodologies of injection of the gas (carboxyacupuncture, sclerocarboxytherapy, and carboembolotherapy), all representing methods to optimize the effects and the use of the proposed apparatus (1).
(§1) Along these lines, the applicant has conjectured several clinical applications for using the method and controlled apparatuses of carbon dioxide infusion (A1) combined with the emission of infrared radiation (4) controlled by cutaneous/body thermometry (5) in an interface apparatus (A2) in vascular diseases, painful syndromes, lo treatment of osteoarticular tissues, and induction of focal reactive oxygen therapy. Following tests and observations, the applicant obtained the following results with the application of the present invention: […]

[1] = test system: Vascular Disease—Miscellaneous; experiment: application of the invention in vascular disease, miscellaneous (healing, grafts, flaps); type: in vivo, human; conditions: CO2 infusion combined with infrared radiation controlled by thermometry
Text: The present developed method includes two main stages:
Stage I) Application of the medical grade carbon dioxide—CO2—in vascular diseases and painful syndromes consists of the following stages:
d) Injections of the gas (2) via the parenteral route (3), standardized by the type of vasculopathy, painful syndrome, or induction of focal reactive oxygen therapy, adjusted by the type of treatment, and automatically controlled by the interfaces of the apparatus (A2);
Stage II) Application of infrared radiation consists of the following stages:
(§2) a.1) Following antisepsis and placement of limiting devices (G) (tourniquets), initiate the application of 02 to 03 minutes of infrared radiation in the area to be treated with thermal or light infrared radiation emitters (4), prior to initiating the injection of the CO2 gas (2);
as §1

[2] = test system: patients with vascular and painful morbidities; experiment: subcutaneous and intradermal CO2 injections in patients with vascular and painful morbidities (clinical observation); type: in vivo, human
Text: It was perceived that the beneficial therapeutic effects in the areas of diffusion of CO2 after its injection subcutaneously and intradermally explored the initial “aesthetic” objectives.

[3] = test system: patients allergic to iodine contrast media; conditions: intra-arterial injections, even at large volumes; cited from earlier work
patients = experiment: infrared radiation applied concomitantly with parenteral CO2 injection: pain during gas infusion; type: in vivo, human
Protocol: The intensity of radiation, however, could cause skin lesions; thus, during the infusions, he started to use as a safety parameter the assessment of skin temperature on the sites were irradiation was applied.
as §2
c.1) Monitoring with the infrared emitting source (4) the treated areas (AT) that are receiving the injection of CO2 gas (2), throughout the procedure; in the areas with skin lesions of ischemic etiology, more caution should be exercised when using this radiation.

[4] = test system: bone tissues and related connective tissues; experiment: application of the invention in direct therapies on bone and related connective tissues; type: in vivo, human; conditions: CO2 infusion combined with infrared radiation controlled by thermometry
Text: as §1

[5] = test system: patients that had arterial circulatory disease with intermittent claudication; conditions: transcutaneous, bathing in waters rich in CO2; cited from earlier work

O=C=O [CO2, carbon dioxide]
results in Acupuncture (Carboxyacupuncture) (acupuncture points): Greater local effect at systemic and cranial acupuncture points; also recorded: Greater action spectrum on less sensitive meridians; also recorded: Greater longevity of treatment | results in Vascular Disease—Miscellaneous [1]: Accelerates the cicatricial process in lesions difficult to heal; also recorded: Accelerates the cicatricial process in areas of circulatory deficit; also recorded: Augments donor areas of free skin grafts; also recorded: Circulatory improvement in advancement or myocutaneous flaps | vascular and painful symptoms following injections of the gas ([2]; CO2 injected subcutaneously and intradermally, patients treated for aesthetics): showed improvement of vascular and painful symptoms | therapeutic effects after moving injection sites closer to the painful morbidities and the circulatory system ([2]; modified sites and forms of parenteral injection of CO2): clear intensification of the initially observed therapeutic effects | adverse reactions [3]: no significant adverse reactions even at large volumes | analgesia during the infusion of the gas (patients): produced an important analgesia | results in direct therapies on bone tissues and related connective tissues [4]: Facilitates intraoperatory dissection of tendinous sheaths; also recorded: Minimizes post tenolysis adhesions | walking distance [5]: improving the walking distance
